This is an account of results in US7202339B2, “Crystals of MarR polypeptides, regulators of multiple antibiotic resistance” (Trustees of Tufts College, priority 2001, dated 2007).

In assay [1] the target is T1, MarR (Escherichia coli, UniProt P27245). Particulars: at millimolar concentrations; cited from earlier work.
In assay [2] the target is T1, MarR. Particulars: at millimolar concentrations; cited from earlier work. The source holds these as a separate data set.
Assay [3] addresses MarR, regulator of multiple antibiotic resistance of Escherichia coli (wild type, expressed from pMarR-WT) (Escherichia coli). As to the kind of experiment: X-ray co-crystal structure of MarR dimer with salicylate.

T1 sequence (P27245 whole entry): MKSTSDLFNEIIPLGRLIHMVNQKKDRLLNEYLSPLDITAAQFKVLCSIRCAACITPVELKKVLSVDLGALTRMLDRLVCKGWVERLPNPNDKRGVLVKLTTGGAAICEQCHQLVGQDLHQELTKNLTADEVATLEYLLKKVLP

Take `O=C([O-])c1ccccc1O.[Na+]` [sodium salicylate]: the “inhibition of MarR activity in vitro” value in assay [1] is listed as “inhibit MarR activity”. In addition, in assay [2], the “inhibition of MarR activity in whole cells” value was “inhibit MarR activity”.

In assay [3], “MarR, regulator of multiple antibiotic resistance of Escherichia coli (wild type, expressed from pMarR-WT)” gave a buried surface area (N-/C-terminal hydrophobic core) of 3570 Å^2 and a total buried surface area of 3700 Å^2.
